The record followed here is patent EP2062893A1, “Fused imidazoles for cancer treatment” (Bayer Schering Pharma AG, priority 2007, dated 2009).

pIC50: −log10 of the molar value.

Common to all, as to assay type: cell-based
Assay [1] has as its system phosphorylated Akt protein. The assay is described as follows: Cellular PI3K / Akt pathway assay (phospho-Akt Ser473 sandwich ELISA). Particulars: Homo sapiens; MCF7 cells, ß-Heregulin (20ng/ml) stimulation, 48h incubation. Summed up:
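MCF7 cells, serum-starved in 0.1% charcoal-treated FCS medium, were treated with compound alongside 20 ng/ml ß-heregulin stimulation (0.5% DMSO controls). Lysates analysed by phospho-Akt1 Ser473 sandwich ELISA (overnight capture at 4°C, Akt1 detection antibody, HRP/TMB), absorbance at 450 nm.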
(In general: In an ELISA, binding on a coated surface is turned into a signal by an enzyme label.)

In another assay the test system is phosphorylated GSK3. The assay is described as follows: Cellular pGSK3 assay (phospho-GSK3 Ser9 sandwich ELISA). Particulars: Homo sapiens; MCF7 cells, 48h incubation, IC50 of pGSK3 inhibition. Summed up:
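MCF7 cells treated 48 h at 37 °C with compound dilutions from 10 mM DMSO stocks, then lysed. Phospho-GSK3 Ser9 captured in sandwich ELISA, detected with HRP secondary and TMB, absorbance 450 nm; IC50 of pGSK3 inhibition calculated.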

The next assay has as its system OvCAR3 cells. The assay is described as follows: Cellular proliferation / Cytotoxicity assay (Alamar Blue / Resazurin cell viability). Particulars: Homo sapiens, OVCAR-3, 48h incubation, read-out: Anti-proliferative / Cytotoxic activity (OvCAR3 cells). On the procedure:
Wells containing untreated control cells were filled with 200 µl DMEM (Dulbecco's Modified Eagle Medium) containing 0.5vol% v:v DMSO. The cells are then incubated with the substances for 48h at 37°C in a humidified atmosphere containing 5vol% CO2. To determine the viability of the cells, 20 µl of a Resazurin solution (90mg / I) are added. […] Viabilities are expressed as % values.
In general terms: Alamar Blue is a resazurin reagent that responds to reducing activity.

Take `COc1nccn2c(-c3ccccc3)c(-c3ccc(CN4CCC(c5n[nH]c(-c6ccccn6)n5)CC4)cc3)nc12` [Example 27, 8-methoxy-3-phenyl-2-(4-{[4-(5-pyridin-2-yl-1,2,4-triazol-3-yl)piperidin-1-yl]methyl}phenyl)imidazo[1,2-a]pyrazine]: the pIC50 is greater than 6.00 in assay [1], 5.00 to 6.00 in the assay with phosphorylated GSK3 and greater than 5.00 with OvCAR3 cells.

Regarding `N#Cc1ccn2c(-c3ccccc3)c(-c3ccc(CN4CCC(c5n[nH]c(-c6ccccn6)n5)CC4)cc3)nc2c1` [Example 29, 3-phenyl-2-(4-{[4-(5-pyridin-2-yl-1,2,4-triazol-3-yl)piperidin-1-yl]methyl}phenyl)imidazo[1,2-a]pyridine-7-carbonitrile], the pIC50 is greater than 6.00 in assay [1], greater than 6.00 with phosphorylated GSK3 and greater than 5.00 in the assay with OvCAR3 cells.

As to `c1ccc(-c2c(-c3ccc(CN4CCC(c5cc(-c6ccccn6)n[nH]5)CC4)cc3)nc3ncccn23)cc1` [Example 30, 3-phenyl-2-(4-{[4-(3-pyridin-2-yl-pyrazol-5-yl)piperidin-1-yl]methyl}phenyl)imidazo[1,2-a]pyrimidine], the pIC50 in assay [1] was 5.00 to 6.00; in the assay on phosphorylated GSK3, greater than 6.00; in the assay with OvCAR3 cells it was greater than 5.00.

As for `COc1ccc2nc(-c3ccc(CN4CCC(c5n[nH]c(-c6ccccn6)n5)CC4)cc3)c(-c3ccccc3)n2n1` [Example 32, 6-methoxy-3-phenyl-2-(4-{[4-(5-pyridin-2-yl-1,2,4-triazol-3-yl)piperidin-1-yl]methyl}phenyl)imidazo[1,2-b]pyridazine], the pIC50 is greater than 6.00 in assay [1], 5.00 to 6.00 in the assay with phosphorylated GSK3 and greater than 5.00 with OvCAR3 cells.

Regarding `N=C(N)c1cccn2c(-c3ccccc3)c(-c3ccc(CN4CCC(c5n[nH]c(-c6ccccn6)n5)CC4)cc3)nc12` [Example 33, 3-phenyl-2-(4-{[4-(5-pyridin-2-yl-1,2,4-triazol-3-yl)piperidin-1-yl]methyl}phenyl)imidazo[1,2-a]pyridine-8-carboximidamide], the pIC50 in assay [1] was 5.00 to 6.00; with phosphorylated GSK3, less than 5.00; in the assay on OvCAR3 cells, less than 5.00.

For `c1ccc(-c2nc(C3CCN(Cc4ccc(-c5nc6ncccn6c5-c5ccsc5)cc4)CC3)n[nH]2)nc1` [Example 34, 2-(4-{[4-(5-pyridin-2-yl-1,2,4-triazol-3-yl)piperidin-1-yl]methyl}phenyl)-3-(3-thienyl)imidazo[1,2-a]pyrimidine], the pIC50 is greater than 6.00 in assay [1], greater than 6.00 in the assay with phosphorylated GSK3 and greater than 5.00 in the assay with OvCAR3 cells.

Take `c1ccc(-c2c(-c3ccc(CN4CCC(c5n[nH]c(-c6ccccn6)n5)CC4)cc3)nc3cnccn23)cc1` [Example 37, 3-phenyl-2-(4-{[4-(5-pyridin-2-yl-1,2,4-triazol-3-yl)piperidin-1-yl]methyl}phenyl)imidazo[1,2-a]pyrazine]: the pIC50 was greater than 6.00 in assay [1], 5.00 to 6.00 in the assay on phosphorylated GSK3 and greater than 5.00 with OvCAR3 cells.

As to `NC(=O)c1ccn2c(-c3ccccc3)c(-c3ccc(CN4CCC(c5n[nH]c(-c6ccccn6)n5)CC4)cc3)nc2c1` [Example 38, 3-phenyl-2-(4-{[4-(5-pyridin-2-yl-1,2,4-triazol-3-yl)piperidin-1-yl]methyl}phenyl)imidazo[1,2-a]pyridine-7-carboxamide], the pIC50 was greater than 6.00 in assay [1], greater than 6.00 in the assay with phosphorylated GSK3 and greater than 5.00 in the assay on OvCAR3 cells.

For the molecule `c1ccc(-c2nc(C3CCN(Cc4ccc(-c5nc6ncccn6c5-c5nccs5)cc4)CC3)n[nH]2)nc1` [Example 39, 2-(4-{[4-(5-pyridin-2-yl-1,2,4-triazol-3-yl)piperidin-1-yl]methyl}phenyl)-3-(1,3-thiazol-2-yl)imidazo[1,2-a]pyrimidine], the pIC50 in assay [1] was greater than 6.00; in the assay on phosphorylated GSK3 it was 5.00 to 6.00; with OvCAR3 cells, greater than 5.00.
